Laboratory results as given in PubChem BioAssay AID652149 (Molecular Libraries Program, Specialized Chemistry Center, …, 2013).
The source made the active and inactive calls. The rule behind the calls is not given here.

Molecular target: Breakpoint cluster region protein (Homo sapiens) (UniProt P11274)
Experiment: dose-response of breakpoint cluster region GAP-domain inhibitors, specificity screen for MgcRacGAP inhibitor effort, cell-free enzymatic, Rac1 GTPase, Biomol Green phosphate measurement (AID 652149)
Conditions: BCR GAP/Rac1 GTPase, Biomol green phosphate absorbance; for inhibition: at 100 µM (top of the series)

Chain of Breakpoint cluster region protein (Homo sapiens) (P11274 whole entry, looked up): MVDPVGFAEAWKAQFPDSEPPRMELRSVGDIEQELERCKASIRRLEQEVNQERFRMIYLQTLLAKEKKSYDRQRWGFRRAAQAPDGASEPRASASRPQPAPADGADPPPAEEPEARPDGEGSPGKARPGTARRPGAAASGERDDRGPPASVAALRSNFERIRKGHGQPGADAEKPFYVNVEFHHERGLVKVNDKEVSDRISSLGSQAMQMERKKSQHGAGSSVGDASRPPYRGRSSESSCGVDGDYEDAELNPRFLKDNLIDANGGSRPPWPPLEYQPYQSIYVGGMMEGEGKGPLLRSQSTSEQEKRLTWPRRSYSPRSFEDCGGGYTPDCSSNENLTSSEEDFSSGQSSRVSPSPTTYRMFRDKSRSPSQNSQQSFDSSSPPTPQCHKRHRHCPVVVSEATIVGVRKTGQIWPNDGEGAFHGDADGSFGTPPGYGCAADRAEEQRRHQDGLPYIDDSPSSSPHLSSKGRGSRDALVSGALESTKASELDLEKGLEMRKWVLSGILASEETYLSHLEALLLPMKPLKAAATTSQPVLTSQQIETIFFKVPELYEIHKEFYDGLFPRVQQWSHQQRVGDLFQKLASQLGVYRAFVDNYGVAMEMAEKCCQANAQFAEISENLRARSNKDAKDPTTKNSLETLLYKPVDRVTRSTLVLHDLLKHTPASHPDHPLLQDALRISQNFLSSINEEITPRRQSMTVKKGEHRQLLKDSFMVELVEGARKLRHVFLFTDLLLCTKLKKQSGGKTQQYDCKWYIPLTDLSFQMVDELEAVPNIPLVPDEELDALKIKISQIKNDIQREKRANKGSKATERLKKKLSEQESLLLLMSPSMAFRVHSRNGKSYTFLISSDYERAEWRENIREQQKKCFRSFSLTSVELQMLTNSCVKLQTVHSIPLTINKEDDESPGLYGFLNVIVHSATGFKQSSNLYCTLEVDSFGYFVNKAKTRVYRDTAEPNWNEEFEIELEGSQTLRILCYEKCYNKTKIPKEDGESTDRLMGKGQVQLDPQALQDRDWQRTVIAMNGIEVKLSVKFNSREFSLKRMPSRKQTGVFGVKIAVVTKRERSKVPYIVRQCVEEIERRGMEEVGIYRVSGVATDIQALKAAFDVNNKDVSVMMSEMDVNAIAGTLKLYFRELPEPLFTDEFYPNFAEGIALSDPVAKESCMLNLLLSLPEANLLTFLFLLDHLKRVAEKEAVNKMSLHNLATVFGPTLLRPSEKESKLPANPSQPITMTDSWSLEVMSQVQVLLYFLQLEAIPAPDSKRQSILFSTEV

Row | SMILES | IC50 | inhibition
1 | Cc1c(Cl)sn(-c2ccc(Cl)cc2)c1=O | 12.9 µM | 
2 | CN(C)c1ncc(C2=C(Cl)C(=O)C(N3CCCC3)=C(Cl)C2=O)s1 |  | inactive
3 | COc1ccc(-n2sc3ccccc3c2=O)cc1 | 13.3 µM | 
4 | O=C1C(SCCO)=C(SCCO)C(=O)c2ccccc21 | 25.2 µM | 
5 | Nc1ccc(OCc2ccco2)cc1 | 20.6 µM | 
6 | O=c1c2ccccc2sn1-c1ccccc1F | 32.8 µM | 
7 | O=C1NC(=S)N(c2ccccc2)C(=O)/C1=C/c1ccco1 | 10.2 µM | 
8 | O=C1C(=Cc2ccco2)CCC1=Cc1ccco1 | 12.7 µM | 
9 | CCN(CC)c1ccc(C(=C2C=CC(=[N+](CC)CC)C=C2)c2ccc(N(CC)CC)cc2)cc1 | 35.1 µM | 
10 | O=C(O)C1CSC(c2ccco2)N1 (stereo unspecified) | 10.7 µM | 
11 | O=C1C=CC(=O)c2c(O)c(N3CCN(CCO)CC3)c(Cl)c(O)c21 | 10.2 µM | 
12 | Cc1cc(C)c2c(=N)c3ccccc3n(CCCCCCCCn3c4ccccc4c(=N)c4c(C)cc(C)nc43)c2n1 | 18 µM | 
13 | Cc1ccc(-n2sc3cc(F)ccc3c2=O)c(C)c1 | 6.71 µM | 
14 | O=C1C=CC(=O)c2c(O)c(N3CCN(CCOCCO)CC3)c(Br)c(O)c21 | 31.4 µM | 
15 | COc1ccc(NC2CCCN(C(=O)C3(C)CCCCC3)C2)cc1 (stereo unspecified) | 7.34 µM | 
16 | CCN1CCN(Cc2ccc(NC(=O)c3ccc(C)c(/C=C/c4cnc(Nc5cc(N6CCNCC6)nc(C)n5)cn4)c3)cc2C(F)(F)F)CC1 | 72.7 µM | 
17 | CN(C)c1nc(=NCc2cccs2)ss1 | 18.5 µM | 
18 | O=c1c2ccccc2sn1-c1ccc(Cl)cc1Cl | 4.22 µM | 
19 | O=C1C=CC(=O)N1c1ccccc1N1C(=O)C=CC1=O | 22.1 µM | 
20 | Cc1cc(N)c2cc(NC(=O)/C=C/c3ccccc3Cl)ccc2n1 | 29.1 µM | 
21 | Cc1ccc(C)c(-n2sc3ccc(F)cc3c2=O)c1 | 7.31 µM | 
22 | Nc1n[nH]c(=S)n1/N=C1/C(=O)Nc2ccccc21 | 14.6 µM | 
23 | CN(C)c1ccc(C=c2c3cc(O)ccc3n3c2cc(-c2ccccc2)[n+]3C)cc1 | 10.8 µM | 

Row | SMILES | IC50 | inhibition
24 | O=C(O)c1cc(N2N=C(C(F)(F)F)/C(=C/C=C/c3ccco3)C2=O)ccc1Cl |  | inactive
25 | O=c1c2ccccc2sn1-c1ccc(F)cc1 | 4.46 µM | 
26 | O=c1c2ccccc2sn1-c1cccc(Cl)c1 | 38.1 µM | 
27 | COc1ccc(-n2sc3ccc(F)cc3c2=O)cc1 | 9.82 µM | 
28 | O=c1c2ccc(F)cc2sn1-c1ccccc1 | 9.12 µM | 
29 | O=C1C(Cl)=C(NC(=O)c2ccccc2)C(=O)C(Cl)=C1NC(=O)c1ccccc1 | 22.7 µM | 
30 | COC(=O)c1cccc(-n2sc3ccccc3c2=O)c1 | 14.8 µM | 
31 | CSc1nc(N)c(N=Nc2ccc([As](=O)(O)O)cc2)c(=O)[nH]1 | 5.86 µM | 
32 | COc1ccc(/C=N/Nc2cc(C)nc3ccc(OC)cc23)c(OC)c1 | 18.4 µM | 
33 | Cn1ccc(=Nc2ccc(NC(=O)c3ccc(N=c4ccn(C)c5ccc([N+](=O)[O-])cc45)cc3)cc2)cc1 | 14.2 µM | 
34 | C[n+]1c(-c2ccc(C=NNC(=O)c3ccc(C(=O)NN=Cc4ccc(-c5cn6ccccc6[n+]5C)cc4)cc3)cc2)cn2ccccc21 | 14.4 µM | 
35 | CC(=O)Nc1ccc2sn(-c3ccccc3)c(=O)c2c1 | 27.4 µM | 
36 | CC1=NNC(=O)C1Br (stereo unspecified) | 13.6 µM | 
37 | O=C(Nc1ccccc1Cl)/C(Cl)=C(\Cl)S(=O)c1ccccc1 (stereo unspecified) | 12.6 µM | 
38 | CN(C)c1ccc(/C=C/c2cc[n+](C)c3ccccc23)cc1 | 23.3 µM | 
39 | O=c1c2cc(F)ccc2sn1-c1ccccc1 | 7.49 µM | 
40 | COc1ccc(Nc2ccc3ccccc3c2)cc1 | 5.93 µM | 
41 | O=c1c2cc(F)ccc2sn1-c1ccccc1Cl | 8.92 µM | 
42 | CC1OC(CC(=O)O)CC2=C1C(=O)c1c(O)cccc1C2=O (stereo unspecified) | 13.2 µM | 
43 | O=c1c2ccccc2sn1-c1ccc(Cl)cc1 | 4.44 µM | 
44 | O=C(O)c1cccc(-n2sc3ccccc3c2=O)c1 | 9.61 µM | 
45 | O=c1c2sc3ccccc3c2[nH]c(=S)n1CCN1CCOCC1 | 5.15 µM | 
46 | O=C(O)c1cc(N2C(=O)C=CC2=O)cc(N2C(=O)C=CC2=O)c1 | 24.4 µM | 
